Values quoted from earlier work, collected in patent US20060105063A1, “Synergic combination of compositions containing aloe vera isolates and their therapeutic application” (priority 2004, published 2006).

Legend:
[1] = system: animals ingesting a diet composed of 20% Fucose

C[C@H](O)[C@@H](O)[C@@H](O)[C@H](O)C=O [Fucose]
Oral dose considered safe (healthy 150-pound adult): ≤ 34 grams | Rate of excretion, mainly in the urine (humans): approximately 17 micrograms per minute | Time to elimination from the bloodstream (oral, after maximum blood levels): eight to twelve | Microscopic examination of liver, kidney, pancreas and sternal bone marrow ([1]; Fucose-treated rats): no abnormalities | Oral toxicity ([1]; animals ingesting a diet composed of 20% Fucose): reduce nerve conduction velocity as well as collagen production
